Here are results for four molecules from article PMC8297402, “Trifluoromethyl-substituted 3,5-bis(arylidene)-4-piperidones as potential anti-hepatoma and anti-inflammation agents by inhibiting NF-кB activation” (Journal of Enzyme Inhibition and Medicinal Chemistry, 2021).

Where “and” joins values, the source holds several entries; their conditions need not be identical. Equal entries are not always repeated. Where two headings read alike, the source gives them in different places. Some results are limits rather than exact numbers.

One data set concerns IL-6. Put plainly: ELISA of IL-6 release in LPS-stimulated RAW264.7 cells. It is filed as cell-based, mouse. The conditions noted are these: BAPs (5 μM) + LPS (1 μg/mL), RAW264.7, ELISA. As for the experimental part:
(§1) We tested by inhibiting the secretion of TNF-α and IL-6 to better evaluated the anti-inflammatory effects of BAPs. […] Under the stimulation of LPS (1.0 μg/mL) with RAW264.7 cells, the release of TNF-α and IL-6 was detected. Besides, after treated with BAPs (5.0 μM) and LPS (1.0 μg/mL), the release of TNF-α and IL-6 was measured with an ELISA kit (eBioScience, San Diego, California), respectively. In general terms, pyrrolidine dithiocarbamate (PDTC, 30 μM) or BAP (5.0 μM) was used to pretreat cells for 2 h, respectively. Then, LPS (1.0 μg/mL) was added and cells were incubated for another 22 h. Finally, the culture media were centrifuged at 1000 rpm for 10 min, and the expression levels of TNF-α and IL-6 were determined by ELISA.

The next data set deals with LO2. Put plainly: Modified MTT cytotoxicity assay, normal heptical cell line LO2. It counts as cell-based, human. Conditions: 24 h incubation. How it is done: (§2) The HepG2, SMMC-7721, and LO2 cell lines were maintained at 37 °C, 5% humidified CO2, and 95% atmosphere. Dulbecco's Modified Eagle (DMEM) medium containing 10% foetal bovine serum (FBS) was used for culturing the HepG2 cell line; meanwhile, Roswell Park Memorial Institute (RPMI) 1640 medium containing 10% FBS was used for culturing other cell lines (SMMC-7721, LO2). The HepG2, SMMC-7721 and LO2 cells were seeded in a 96-well plate in 200 μL of medium per well at a density of approximately 8 × 10^3 cells/well and cultured for 24 h, followed by incubation in an incubator of indicated compounds with successive concentrations (10, 5, 2.5, 1.25, 0.625, 0.3125 μg/mL) for 24 h. In the control group, cells were only cultured with culture media. After the media were removed, 20 μL of MTT (5 mg/mL) was added, then cells were incubated for 4 h at 37 °C. […] GraphPad Prism 5 software was used to calculate their IC50 values. Every IC50 value was the average of three replicates. Doxorubicin (DOX) and curcumin were used as positive controls.
For orientation: Tetrazolium dyes change colour on reduction, which living cells bring about.

The next data set has as its system TNF-α. Put plainly: ELISA of TNF-α release in LPS-stimulated RAW264.7 cells. The conditions noted are these: for Inhibition rate TNF-α: BAPs (5 μM) + LPS (1 μg/mL), RAW264.7, ELISA; for Inhibition rates against IL-6 and TNF-α cytokine release, average: average of TNF-α and IL-6, 5 μM + LPS, RAW264.7. It counts as cell-based, mouse. As for the experimental part:
as §1
(In general: In an ELISA, binding on a coated surface is turned into a signal by an enzyme label.)

Another data set deals with SMMC-7721. Put plainly: Modified MTT cytotoxicity assay, SMMC-7721. It counts as cell-based, Human. Conditions: for IC50: MTT, 24 h incubation, three replicates; for SI (selectivity index) SMMC-7721: quotient of IC50 for normal (LO2) and malignant (SMMC-7721) cells. How it is done:
as §2

The subject of the next data set is RAW264.7 cell. Put plainly: MTT toxicity pre-experiment on RAW264.7 macrophagocyte. Conditions: BAPs 5 μM. It counts as cell-based, mouse. How it is done: Lipopolysaccharide (LPS) is a key constituent of Gram-negative bacterial endotoxin, which is used to induce an inflammatory response in corresponding inflammatory cells. TNF-α and IL-6 are two kinds of representative pro-inflammatory factors, which produced by LPS-stimulated RAW264.7 macrophage. In our pre-experiments, the toxicity against RAW264.7 macrophagocyte for all title compounds was tested by the MTT assay, and the results were listed in Table 2. The survival rates were above 80% for all BAPs (4-30) at the concentration of 5.0 μM.

The subject of the next data set is A2780. Put plainly: Modified MTT cytotoxicity assay, A2780. The conditions noted are these: for SI (selectivity index) A2780: quotient of IC50 for normal (HHL-5) and malignant (A2780) cells; for IC50: read-out: Cytotoxicity IC50 A2780, MTT, ovarian cancer cell line.
The next data set has as its system HepG2. Put plainly: Modified MTT cytotoxicity assay, HepG2. It is filed as cell-based, Human. The conditions noted are these: for SI (selectivity index) HepG2: quotient of IC50 for normal (LO2) and malignant (HepG2) cells; for SI value, average: average of SI for HepG2 and SMMC-7721. How it is done: as §2
A further data set concerns A549. Put plainly: Modified MTT cytotoxicity assay, A549. The conditions noted are these: for SI (selectivity index) A549: quotient of IC50 for normal (HHL-5) and malignant (A549) cells; for IC50: read-out: Cytotoxicity IC50 A549, MTT, non-small cell lung cancer cell line.
A further data set deals with HHL-5. Put plainly: Modified MTT cytotoxicity assay, normal heptical cell line HHL-5. The conditions noted are these: read-out: Cytotoxicity IC50 HHL-5; MTT, normal heptical cell line.
Setting [1] is: MTT, 24 h incubation, three replicates, read-out: Cytotoxicity IC50 HepG2.
[2] abbreviates: average of HepG2 and SMMC-7721, read-out: Cytotoxicity against HCC cells, average.

Method for A549: (§3) To further verify the anti-tumour activity, one human non-small cell lung cancer cell line (A549), one human ovarian cancer cell line (A2780), and one human normal heptical cell line (HHL-5) were screened by BAPs (4–30) using a modified MTT assay (Supporting Information). DOX and curcumin were selected as positive controls.
(§4) The optical density (OD) value of each well was measured on a
(§5) multi-well plate reader (TECAN, Mӓnnedorf, Switzerland ) at 570 nm.
(§6) Every IC 50 value was the average of three replicates.
(§7) Doxorubicin (DOX) and Curcumin were used as positive controls.
Method for HHL-5: as §3, §4, §5, §6, §7

For `O=C1/C(=C/c2ccccc2C(F)(F)F)CN(S(=O)(=O)c2ccccc2)C/C1=C\c1ccccc1C(F)(F)F` [BAP 4], the “Inhibition rate IL-6” value with IL-6 came to 70.7 ± 1.3%. Moreover, the IC50 with LO2 was 16.4 ± 0.2 µM; in the data set on SMMC-7721, about 8.2 µM; in the data set with SMMC-7721 (listed as 4), 8.2 ± 0.6 µM; in the data set on A2780, 54 ± 12 µM; with HepG2 (MTT, 24 h incubation, three replicates, listed as 4, read-out: Cytotoxicity IC50 HepG2), 9.2 ± 0.2 µM; in the data set with HepG2 (setting [1]) it was about 9.2 µM. Besides, the IC50 in the data set on A549 was 2.24 ± 1.23 µM. Besides, the “Inhibition rate TNF-α” value in the data set on TNF-α amounted to 62.1 ± 4.7%. The “SI (selectivity index) SMMC-7721” value with SMMC-7721 was 2.0. Also, in the data set on RAW264.7 cell, the “Survival rate RAW264.7 cell” value came out at 82.2 ± 2.0%. For the same molecule, the “SI (selectivity index) A2780” value in the data set on A2780 is 0.2. Further, the “SI (selectivity index) HepG2” value in the data set with HepG2 was determined as 1.8. In addition, the “SI (selectivity index) A549” value in the data set with A549 was found to be 3.8.

In the case of `O=C1/C(=C/c2ccc(C(F)(F)F)cc2)CN(S(=O)(=O)c2ccc(C(F)(F)F)cc2)C/C1=C\c1ccc(C(F)(F)F)cc1` [BAP 25], the IC50 in the data set with LO2 is 18.3 ± 0.6 µM; in the data set with SMMC-7721 it was 1.3 ± 0.3 µM; with HHL-5 it was 11.1 ± 0.2 µM; in the data set on A2780, 0.28 ± 0.03 µM; in the data set on HepG2 (setting [1]), 0.9 ± 0.2 µM; in the data set with HepG2 (setting [2]), 1.1 µM. Besides, in the data set with A549, the IC50 is 0.27 ± 0.03 µM. Besides, in the data set with TNF-α, the “Inhibition rates against IL-6 and TNF-α cytokine release, average” value was found to be 78.6%. Also, the “SI (selectivity index) SMMC-7721” value in the data set with SMMC-7721 worked out at 14.1. The “Survival rate RAW264.7 cell” value with RAW264.7 cell was 87.3% and 87.3 ± 4.2%. For the same molecule, in the data set on A2780, the “SI (selectivity index) A2780” value was found to be 39.6. Moreover, in the data set on HepG2, the “SI value, average” value turned out to be 17.2. In addition, in the data set on HepG2, the “SI (selectivity index) HepG2” value amounted to 20.3. In addition, the “SI (selectivity index) A549” value in the data set on A549 was 41.1.

As to `O=C1/C(=C/c2ccc(C(F)(F)F)cc2)CN(S(=O)(=O)c2ccc(F)cc2)C/C1=C\c1ccc(C(F)(F)F)cc1` [BAP 26], in the data set on IL-6, the “Inhibition rate IL-6” value is 62.8 ± 3.0%. Moreover, the IC50 was 15.7 ± 0.2 µM with LO2; 3.1 ± 0.1 µM in the data set with SMMC-7721; 0.297 ± 0.05 µM in the data set with A2780; 3.1 ± 0.2 µM in the data set on HepG2 (setting [1]); 0.16 ± 0.05 µM with A549. For the same molecule, the “Inhibition rate TNF-α” value in the data set with TNF-α is listed as 66.3 ± 5.3%. In addition, the “SI (selectivity index) SMMC-7721” value in the data set on SMMC-7721 was 5.1. In the data set with RAW264.7 cell, the “Survival rate RAW264.7 cell” value stood at 87.6 ± 1.7%. In the data set on A2780, the “SI (selectivity index) A2780” value is 38.0. For the same molecule, the “SI (selectivity index) HepG2” value in the data set with HepG2 was 5.1. In addition, the “SI (selectivity index) A549” value in the data set with A549 was 70.6.

For `N#Cc1ccc(S(=O)(=O)N2C/C(=C\c3ccc(C(F)(F)F)cc3)C(=O)/C(=C/c3ccc(C(F)(F)F)cc3)C2)cc1` [BAP 29], the IC50 with LO2 was 21.5 ± 1.5 µM; in the data set with SMMC-7721, 1.3 ± 0.3 µM; with HHL-5, 16.5 ± 0.3 µM; in the data set with A2780, about 0.18 µM; in the data set on A2780 (listed as 29), 0.18 ± 0.01 µM; in the data set on HepG2 (setting [1]), 1.7 ± 0.1 µM. For the same molecule, the IC50 is 1.5 µM with HepG2 (setting [2]), about 0.081 µM with A549 and 0.081 ± 0.004 µM in the data set with A549 (listed as 29). Also, the “Inhibition rates against IL-6 and TNF-α cytokine release, average” value in the data set with TNF-α turned out to be 73.4%. Also, the “SI (selectivity index) SMMC-7721” value in the data set on SMMC-7721 is given as 16.5. In addition, in the data set on RAW264.7 cell, the “Survival rate RAW264.7 cell” value was 83.4% and 83.4 ± 3.3%. The “SI (selectivity index) A2780” value in the data set with A2780 turned out to be 91.7. In addition, the “SI value, average” value in the data set with HepG2 is listed as 14. Moreover, the “SI (selectivity), bound stated for A549 and A2780 together” value with A549 (A549 and A2780 vs HHL-5) is recorded as over 90. Further, in the data set on A549, the “SI (selectivity index) A549” value came to 203.7.
